Source: patent publication US11226337B2, “Chemoproteomic profiling of protein electrophilic and oxidative post-translational modifications” (Zenagem, LLC, priority 2017, dated 2022)
Entries after “also recorded” stand apart in the source; their conditions may differ.

Columns and labels:
HEK293T cells = experiment: CellTiter-Glo luminescence cell viability assay; format: cell-based, human; conditions: probe 1 3 mM, 1 hour, 37° C., n=4; untreated 132±2
Method: Working stock solutions of probes and competitors were neutralized prior to treatment and media was supplemented with 10 mM Na-HEPES (pH 7.5) to enhance the buffer capacity to ensure the pH was maintained. The phenol red pH indicator of the media confirmed that there was no substantial change in pH during the treatment. Cell viability was quantified based on ATP levels in the absence and presence of probe 1 with or without competitor probe 3 using the CellTiter-Glo luminescence assay (Promega). Trypsinized HEK293T cells were diluted in serum-free DMEM supplemented with 10 mM Na-HEPES to a final concentration of 0.8 million cells/mL. To a cell culture microplate (Greiner Bio-One No. 655098; white, 96-well, 34 mm^2 growth area per well, Clear bottom), 80,000 cells (100 μL of cell suspension) were plated per well. […] After 20 minutes at ambient temperature, luminescence was measured on a Biotech Synergy 4 plate reader. Well luminescence, in relative light units (RLU), under each condition (n=4 of each) was measured to determine cell viability according to the formula: Iuntreated, Iprobe 1, and Iprobe 1/competitor 3=(132±2, 139±2, and 134±1)×10^3 RLU. “Iuntreated” refers to the intensity of luminescence of untreated cells; and “Iprobe 1” refers to the intensity of luminescence of probe-1 treated cells.

AMD1 pyruvoyl cofactor = target: T1, AMD1 pyruvoyl cofactor (Homo sapiens, UniProt P17707); experiment: in vitro labelling of purified reconstituted AMD1, LC-MS/MS; format: binding; conditions: 50 μM AMD1, 3 mM probe 1, overnight
T1 construct: made in house; host or cells: E. coli (vector pQE30)
Method: Full-length AMD1 having an additional 12 amino acids (MRGSH6GS) (SEQ ID NO: 46) appended to the N-terminal methionine residue was expressed from the bacterial vector pQE30. The appendage contains a His6 element (SEQ ID NO: 69) to permit purification of the protein by metal ion affinity chromatography on Ni-NTA agarose (Qiagen). E. coli cell cultures were grown at 37° C. in rich LB broth (35 g/L tryptone, 20 g/L yeast extract, 5 g/L NaCl, and 0.05 g/L kanamycin (pH 7.0)) to an optical density at 600 nm of 0.6-0.8. The flasks were cooled rapidly by incubation on ice for 30 minutes prior to addition of IPTG (1 mM). Following induction, cultures were grown at 15-18° C. for an additional 16-20 hours and cells were harvested by centrifugation (8,000 g, 30 min, 4° C.). The cell paste was flash-frozen in liquid N2 and stored at −80° C. A typical yield was 8-10 g of wet cell paste per liter of culture. […]
A 100 μL solution of 50 μM purified reconstituted AMD1 in PBS was incubated overnight at ambient temperature in the presence or absence of 3 mM probe 1 (pH 7). […] Peptides were eluted from the column using a 180 minute gradient from 0% to 50% Buffer B (Buffer A: 5% acetonitrile, 95% H2O, 0.1% formic acid; Buffer B: 80% acetonitrile, 20% H2O, 0.1% formic acid) and analyzed on an LTQ-Orbitrap Finnigan mass spectrometer (Thermo Scientific). […]

T1 sequence (P17707 68-334 limits assumed): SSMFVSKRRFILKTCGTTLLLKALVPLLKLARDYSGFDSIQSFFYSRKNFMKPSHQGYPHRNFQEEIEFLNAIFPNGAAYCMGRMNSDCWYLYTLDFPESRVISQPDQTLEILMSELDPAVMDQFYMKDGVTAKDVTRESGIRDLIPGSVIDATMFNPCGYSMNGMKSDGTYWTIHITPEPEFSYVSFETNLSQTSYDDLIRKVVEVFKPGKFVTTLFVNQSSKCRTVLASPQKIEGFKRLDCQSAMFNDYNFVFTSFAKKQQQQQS
T1 sequence (P17707 1-67 partner limits assumed): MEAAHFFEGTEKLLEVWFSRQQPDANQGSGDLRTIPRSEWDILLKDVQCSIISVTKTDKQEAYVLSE

With C#CCNN.Cl [probe 1, prop-2-yn-1-ylhydrazine hydrochloride] the “Well luminescence (cell viability based on ATP levels)” value (HEK293T cells) was 139±2 ×10^3 RLU, the “site specificity of the reaction” value (AMD1 pyruvoyl cofactor) was “reacted specifically with the N-terminal pyruvoyl group” and the “extent of reaction with the pyruvoyl group” value (AMD1 pyruvoyl cofactor; ambient temperature, hydrochloride) was “the reaction with probe 1 was complete; also recorded: proceeded to near-completion”.
